Measurements reported in US9732119B2, “Immunomodulators” (BRISTOL-MYERS SQUIBB COMPANY, priority 2014, dated 2017).
Positions of bridges follow the written chain, without caps; N, C: chain ends. Non-standard residues stand in square brackets, D forms with d. Residues, ends and D or L forms follow the SMILES beside them. Trp(1-CH2COOH) = N[C@@H](Cc1cn(CC(=O)O)c2ccccc12)C(=O)O; Phe(4-F) = N[C@@H](Cc1ccc(F)cc1)C(=O)O; Phe(4-Me) = Cc1ccc(C[C@H](N)C(=O)O)cc1; Hyp = O=C(O)[C@@H]1C[C@@H](O)CN1; Aad = N[C@@H](CCCC(=O)O)C(=O)O; NMeNle = CCCC[C@H](NC)C(=O)O; Pip = O=C(O)[C@@H]1CCCCN1; NMeA = CN[C@@H](C)C(=O)O; Orn = NCCC[C@H](N)C(=O)O; Dab = NCC[C@H](N)C(=O)O; Dap = NC[C@H](N)C(=O)O

biological target: T1, PD-1-Ig binding to PD-L1-TVMV-His (PD-L1-His) (Homo sapiens, UniProt Q9NZQ7); experiment: PD-1/PD-L1 Homogenous Time-Resolved Fluorescence (HTRF) binding assay; conditions: PD-1-Ig (20 nM) / PD-L1-His (10 nM); range classes
T1 construct: hPDL1(19-239)-TVMV-His; made in house; host or cells: HEK293T cells
Procedure, shortened: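 In dPBS with 0.1% BSA and 0.05% Tween-20, inhibitors were preincubated 15 min with 10 nM PD-L1-His before 20 nM PD-1-Ig was added for another 15 min. Binding read by time-resolved FRET between Eu-cryptate anti-Ig (1 nM) and APC anti-His (20 nM).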

T1 sequence (Q9NZQ7 with tags, fused parts or gaps): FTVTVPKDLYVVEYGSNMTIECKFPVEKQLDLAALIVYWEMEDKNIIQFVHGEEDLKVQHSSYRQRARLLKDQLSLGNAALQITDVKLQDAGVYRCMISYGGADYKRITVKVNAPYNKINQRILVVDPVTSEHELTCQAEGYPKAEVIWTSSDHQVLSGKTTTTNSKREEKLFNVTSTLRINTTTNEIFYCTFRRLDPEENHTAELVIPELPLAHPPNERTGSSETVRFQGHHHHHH

Q: `CCCC[C@H]1C(=O)N(C)[C@@H](CCCC)C(=O)N[C@@H](CCC(=O)O)C(=O)N[C@H](C(N)=O)CNCC(=O)N[C@@H](Cc2ccc(O)cc2)C(=O)N2CCCC[C@H]2C(=O)N[C@@H](CC(N)=O)C(=O)N2CCC[C@H]2C(=O)N[C@@H](Cc2c[nH]cn2)C(=O)N[C@@H](CCC(N)=O)C(=O)N2C[C@H](O)C[C@H]2C(=O)N[C@@H](Cc2c[nH]c3ccccc23)C(=O)N[C@@H](C)C(=O)N[C@@H](Cc2cn(CC(=O)O)c3ccccc23)C(=O)N1C` [Example 9056] was tested. Which IC50 did it give?
A: 1 to 9.9 nM

Q: Which IC50 does the source give for `CCCC[C@H]1C(=O)N(C)[C@@H](CCCC)C(=O)N[C@@H](CC(C)C)C(=O)N[C@H](C(N)=O)COCC(=O)N[C@@H](Cc2ccc(C)cc2)C(=O)N2CCCC[C@H]2C(=O)N[C@@H](CC(N)=O)C(=O)N2CCC[C@H]2C(=O)N[C@@H](CN)C(=O)N[C@@H](CC(C)C)C(=O)N2C[C@H](O)C[C@H]2C(=O)N[C@@H](Cc2c[nH]c3ccccc23)C(=O)N[C@@H](CCN)C(=O)N[C@@H](Cc2cn(CC(=O)O)c3ccccc23)C(=O)N1C` [Example 10527] here?
A: 10 to 99 nM

Q: How did the IC50 turn out when `CCCC[C@H]1C(=O)N(C)[C@@H](CCCC)C(=O)N[C@@H](CC(C)C)C(=O)NCCC[C@H](N)C(=O)N[C@@H](Cc2ccc(O)cc2)C(=O)N2CCCC[C@H]2C(=O)N[C@@H](CC(N)=O)C(=O)N2CCC[C@H]2C(=O)N[C@@H](CN)C(=O)N[C@@H](CC(C)C)C(=O)N2CCC[C@H]2C(=O)N[C@@H](Cc2c[nH]c3ccccc23)C(=O)N[C@@H](CCN)C(=O)N[C@@H](Cc2cn(CC(=O)O)c3ccccc23)C(=O)N1C` [Example 10511] (H-[Orn]Y[Pip]NP[Dap]LPW[Dab][Trp(1-CH2COOH)][NMeNle][NMeNle]L; lactam 1-C) was run?
A: 100 to 10000 nM

Q: `CCCC[C@H]1C(=O)N(C)[C@@H](CCCC)C(=O)N[C@@H](CCC(=O)O)C(=O)N[C@H](C(N)=O)CNCC(=O)N[C@@H](Cc2ccc(F)cc2)C(=O)N2CCCC[C@H]2C(=O)N[C@@H](CC(N)=O)C(=O)N2CCC[C@H]2C(=O)N[C@@H](CCC(N)=O)C(=O)N[C@@H](CCC(N)=O)C(=O)N2C[C@H](O)C[C@H]2C(=O)N[C@@H](Cc2c[nH]c3ccccc23)C(=O)N[C@@H](CC(N)=O)C(=O)N[C@@H](Cc2cn(CC(=O)O)c3ccccc23)C(=O)N1C` [Example 9048] was tested. Which IC50 did it give?
A: 1 to 9.9 nM

Q: `CCCC[C@H]1C(=O)N(C)[C@@H](CCCC)C(=O)N[C@@H](CC(C)C)C(=O)N[C@H](C(=O)NCC(N)=O)CCCNCC(=O)N[C@@H](Cc2ccccc2)C(=O)N(C)[C@@H](C)C(=O)N[C@@H](CC(C)C)C(=O)N2CCC[C@H]2C(=O)N[C@@H](CC(C)C)C(=O)N[C@@H](CC(C)C)C(=O)N2CCC[C@H]2C(=O)N[C@@H](Cc2c[nH]c3ccccc23)C(=O)N[C@@H](CC(C)C)C(=O)N[C@@H](Cc2c[nH]c3ccccc23)C(=O)N1C` [Example 10010] was tested. Which IC50 did it give?
A: 100 to 10000 nM

Q: Which IC50 does the source give for `CCCC[C@H]1C(=O)N(C)[C@@H](CCCC)C(=O)N[C@@H](CC(C)C)C(=O)NCC(=O)NCC(=O)N[C@@H](Cc2ccc(O)cc2)C(=O)N(C)[C@@H](C)C(=O)N[C@@H](CC(N)=O)C(=O)N2CCC[C@H]2C(=O)N[C@@H](CN)C(=O)N[C@@H](CC(C)C)C(=O)N2C[C@H](O)C[C@H]2C(=O)N[C@@H](Cc2c[nH]c3ccccc23)C(=O)N[C@@H](CCN)C(=O)N[C@@H](Cc2c[nH]c3ccccc23)C(=O)N1C` [Example 5001] (cyclo([Dab]W[NMeNle][NMeNle]LGGY[NMeA]NP[Dap]L[Hyp]W)) here?
A: 1 to 9.9 nM

Q: For `CCCC[C@H]1C(=O)N(C)[C@@H](CCCC)C(=O)N[C@@H](CC(C)C)C(=O)N[C@H](C(N)=O)CNCC(=O)N[C@@H](Cc2ccc(O)cc2)C(=O)N2CCCC[C@H]2C(=O)N[C@@H](CC(=O)O)C(=O)N2CCC[C@H]2C(=O)N[C@@H](CCC(N)=O)C(=O)N[C@@H](CC(C)C)C(=O)N2C[C@H](O)C[C@H]2C(=O)N[C@@H](Cc2c[nH]c3ccccc23)C(=O)N[C@@H](CC(N)=O)C(=O)N[C@@H](Cc2cn(CC(=O)O)c3ccccc23)C(=O)N1C` [Example 9034], which IC50 is on record?
A: 1 to 9.9 nM

Q: Which IC50 does the source give for `CCCC[C@H]1C(=O)N(C)[C@@H](CCCC)C(=O)N[C@@H](CC(C)C)C(=O)N[C@H](C(N)=O)CCCC(=O)N[C@@H](Cc2ccc(C)cc2)C(=O)N2CCCC[C@H]2C(=O)N[C@@H](CC(N)=O)C(=O)N2CCC[C@H]2C(=O)N[C@@H](CN)C(=O)N[C@@H](CCC(=O)O)C(=O)N2C[C@H](O)C[C@H]2C(=O)N[C@@H](Cc2c[nH]c3ccccc23)C(=O)N[C@@H](CCN)C(=O)N[C@@H](Cc2cn(CC(=O)O)c3ccccc23)C(=O)N1C` [Example 10521] ([Phe(4-Me)][Pip]NP[Dap]E[Hyp]W[Dab][Trp(1-CH2COOH)][NMeNle][NMeNle]L[Aad]-NH2; lactam N-14) here?
A: 10 to 99 nM

Q: With `CCCC[C@H]1C(=O)N(C)[C@@H](CCCC)C(=O)N[C@@H](CC(C)C)C(=O)N[C@H](C(=O)NCC(N)=O)CNCC(=O)N[C@@H](Cc2ccc(O)cc2)C(=O)N(C)[C@@H](C)C(=O)N[C@@H](CC(N)=O)C(=O)N2CCC[C@H]2C(=O)N[C@@H](CN)C(=O)N[C@@H](CC(C)C)C(=O)N2C[C@H](O)C[C@H]2C(=O)N[C@@H](Cc2c[nH]c3ccccc23)C(=O)N[C@@H](CCCN)C(=O)N[C@@H](Cc2cn(CC(=O)O)c3ccccc23)C(=O)N1C` [Example 1036] as the compound, how does the IC50 read?
A: 1 to 9.9 nM

Q: With `CCCC[C@H]1C(=O)N(C)[C@@H](CCCC)C(=O)N[C@@H](CC(C)C)C(=O)N[C@H](C(N)=O)CNCC(=O)N[C@@H](Cc2ccc(O)cc2)C(=O)N2CCCC[C@H]2C(=O)N[C@@H](CC(N)=O)C(=O)N2CCC[C@H]2C(=O)N[C@@H](CCC(N)=O)C(=O)N[C@@H](CC(=O)O)C(=O)N2C[C@H](O)C[C@H]2C(=O)N[C@@H](Cc2c[nH]c3ccccc23)C(=O)N[C@@H](CC(N)=O)C(=O)N[C@@H](Cc2cn(CC(=O)O)c3ccccc23)C(=O)N1C` [Example 9027] as the compound, how does the IC50 read?
A: 1 to 9.9 nM

Q: Which IC50 does the source give for `CCCC[C@H]1C(=O)N(C)[C@@H](CCCC)C(=O)N[C@@H](C)C(=O)N[C@H](C(=O)NCC(N)=O)CCNCC(=O)N[C@@H](Cc2ccc(O)cc2)C(=O)N(C)[C@@H](C)C(=O)N[C@@H](CC(=O)O)C(=O)N2CCC[C@H]2C(=O)N[C@@H](Cc2cnc[nH]2)C(=O)N[C@@H](CCC(N)=O)C(=O)N2C[C@H](O)C[C@H]2C(=O)N[C@@H](Cc2c[nH]c3ccccc23)C(=O)N[C@@H](CO)C(=O)N[C@@H](Cc2cn(CC(=O)O)c3ccccc23)C(=O)N1C` [Example 10015] here?
A: 1 to 9.9 nM

Q: With `CCCC[C@H]1C(=O)N(C)[C@@H](CCCC)C(=O)N[C@@H](CC(C)C)C(=O)NCCC[C@H](N)C(=O)N[C@@H](Cc2ccc(F)cc2)C(=O)N2CCCC[C@H]2C(=O)N[C@@H](CC(N)=O)C(=O)N2CCC[C@H]2C(=O)N[C@@H](CN)C(=O)N[C@@H](CCC(=O)O)C(=O)N2C[C@H](O)C[C@H]2C(=O)N[C@@H](Cc2c[nH]c3ccccc23)C(=O)N[C@@H](CCN)C(=O)N[C@@H](Cc2cn(CC(=O)O)c3ccccc23)C(=O)N1C` [Example 10548] (H-[Orn][Phe(4-F)][Pip]NP[Dap]E[Hyp]W[Dab][Trp(1-CH2COOH)][NMeNle][NMeNle]L; lactam 1-C) as the compound, how does the IC50 read?
A: 10 to 99 nM

Q: How did the IC50 turn out when `CCCC[C@H]1C(=O)N(C)[C@@H](CCCC)C(=O)N[C@@H](CC(C)C)C(=O)N[C@H](C(=O)NCC(N)=O)CCNCC(=O)N[C@@H](Cc2ccccc2)C(=O)N(C)[C@@H](C)C(=O)N[C@@H](CC(C)C)C(=O)N2CCC[C@H]2C(=O)N[C@@H](CC(C)C)C(=O)N[C@@H](CC(C)C)C(=O)N2CCC[C@H]2C(=O)N[C@@H](Cc2c[nH]c3ccccc23)C(=O)N[C@@H](CC(C)C)C(=O)N[C@@H](Cc2c[nH]c3ccccc23)C(=O)N1C` [Example 10009] was run?
A: 100 to 10000 nM
